Patent publication US7402606B2, “Derivatives of 1-(oxoaminoacetyl) pentylcarbamate as cathepsin K inhibitors for the treatment of bone loss” (SmithKline Beecham Corporation, priority 2002, dated 2008)
Where two headings read alike, the source gives them in different places.

Target: T1, human cathepsin K (Homo sapiens, UniProt P43235)
T1 construct: The proform of cathepsin K was converted to mature cathepsin K by brief exposure to pH 4; made in house; host or cells: baculovirus; Trichoplusia ni High Five cells (virus raised in Sf-9)
T1 sequence (P43235 115-329): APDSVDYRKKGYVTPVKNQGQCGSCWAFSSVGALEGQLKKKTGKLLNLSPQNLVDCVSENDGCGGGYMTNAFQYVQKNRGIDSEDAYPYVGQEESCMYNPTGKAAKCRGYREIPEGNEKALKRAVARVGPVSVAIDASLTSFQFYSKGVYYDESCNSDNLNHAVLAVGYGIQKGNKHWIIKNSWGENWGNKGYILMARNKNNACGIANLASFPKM
Experiment: Cathepsin K inhibition assay, human recombinant enzyme, fluorogenic substrate Cbz-Phe-Arg-AMC
Type: biochemical
Conditions: read-out: h Cat K IC50
Procedure, shortened: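 Recombinant human cathepsin K (baculovirus/insect-cell proform, activated at pH 4 with 5 mM L-cysteine) assayed with 10 μM Cbz-Phe-Arg-AMC, 10% DMSO, 30 °C.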

Row | IC50 (Table 1, human cathepsin K) [nM] | IC50 (Table 2, human cathepsin K) [nM] | Compound
1 | 0.1 to 1 | 0.1 to 1 | CCCC[C@H](NC(=O)O[C@@H]1CN(C(=O)Nc2ccc(C(F)(F)F)cc2)CC1(C)C)C(=O)C(=O)Nc1ccn[nH]1 [Example 71, (3S)-4,4-dimethyl-1-{[4-(trifluoromethyl)anilino]carbonyl}pyrrolidinyl (1S)-1-[oxo(1H-pyrazol-5-ylamino)acetyl]pentylcarbamate]
2 | 0.1 to 1 | 0.1 to 1 | CCCC[C@H](NC(=O)O[C@@H]1CN(c2nnc(C(F)(F)F)s2)CC1(C)C)C(=O)C(=O)Nc1ccn[nH]1 [Example 82, (3S)-4,4-Dimethyl-1-[5-(trifluoromethyl)-1,3,4-thiadiazol-2-yl]pyrrolidinyl-(1S)-1-[oxo(1H-pyrazol-5-ylamino)acetyl]pentylcarbamate]
